Measurements as given in US7161032B2, “Sulfonamide derivatives, insecticides for agricultural and horticultural use, and usage thereof” (Nihon Nohyaku Co., Ltd., priority 2002, dated 2007).

Assays:
Format in all cases: in vivo
[1] = system: Diamond Back Moth (Plutella xylostella); test: Insecticidal effect on diamond back moth (Test Example 1): egg-bearing Chinese cabbage seedling immersed in 50 ppm liquid chemical
Method in brief: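 Seedlings bearing 2-day-old eggs dipped about 30 s in 50 ppm formulated compound, air-dried, held at 25° C. Hatched larvae counted 6 days after immersion; mortality calculated and graded by criterion. Triplicate groups of 10 insects.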

[2] = system: Common Cutworm (Spodoptera litura); test: Insecticidal effect on common cutworm (Test Example 2): cabbage leaf piece immersed in 50 ppm liquid chemical; conditions: common cutworm (Spodoptera litura) second-instar larvae, 8 days after inoculation, 25° C.
Method in brief: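 Cabbage leaf pieces (cv. Shikidori) dipped ~30 s in formulated compound at 50 ppm and air-dried. Second-instar larvae added, kept at 25° C. Dead and alive counted at 8 days to give % mortality, scored against a criterion scale; three groups of 10 insects.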

[3] = system: Smaller Tea Tortrix (Adoxophyes sp.); test: Insecticidal effect on smaller tea tortrix (Test Example 3): tea leaves immersed in 50 ppm liquid chemical; conditions: smaller tea tortrix (Adoxophyes sp.) larvae, 8 days after inoculation, 25° C., humidity 70%
Method in brief: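 Tea leaves dipped about 30 seconds in 50 ppm compound preparation, air-dried, then infested with larvae and held at 25° C and 70% humidity. Dead and alive counted 8 days after inoculation; triplicate groups of 10 insects.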

Compound | Insecticidal effect (mortality grade), Test Example 1 [1] | Insecticidal effect (mortality grade), Test Example 2 [2] | Insecticidal effect (mortality grade), Test Example 3 [3]
Cc1cc(C(F)(C(F)(F)F)C(F)(F)F)ccc1NC(=O)c1cccc(I)c1C(=O)NC(C)CS(=O)(=O)NC(C)C(N)=O (stereo not drawn) [1-103] | A (Mortality 100%) | A (Mortality 100%) | A (Mortality 100%)
CCNC(=O)C(C)NS(=O)(=O)CC(C)NC(=O)c1c(I)cccc1C(=O)Nc1ccc(C(F)(C(F)(F)F)C(F)(F)F)cc1C (stereo not drawn) [1-104] | A (Mortality 100%) | A (Mortality 100%) | A (Mortality 100%)
CCN(CC)C(=O)CNS(=O)(=O)CC(C)NC(=O)c1c(I)cccc1C(=O)Nc1ccc(C(F)(C(F)(F)F)C(F)(F)F)cc1C (stereo not drawn) [1-105] | A (Mortality 100%) | A (Mortality 100%) | E (Mortality less than 50%)
Cc1cc(C(F)(C(F)(F)F)C(F)(F)F)ccc1NC(=O)c1cccc(I)c1C(=O)NC(C)CS(=O)(=O)Nc1ccccc1 (stereo not drawn) [1-106] | A (Mortality 100%) | E (Mortality less than 50%) | E (Mortality less than 50%)
Cc1cc(C(F)(C(F)(F)F)C(F)(F)F)ccc1NC(=O)c1cccc(I)c1C(=O)NC(C)CS(=O)(=O)Nc1ccccc1F (stereo not drawn) [1-107] | A (Mortality 100%) | C (Mortality 89–80%) | A (Mortality 100%)
COc1ccccc1NS(=O)(=O)CC(C)NC(=O)c1c(I)cccc1C(=O)Nc1ccc(C(F)(C(F)(F)F)C(F)(F)F)cc1C (stereo not drawn) [1-108] | A (Mortality 100%) | A (Mortality 100%) | A (Mortality 100%)
Cc1cc(C(F)(C(F)(F)F)C(F)(F)F)ccc1NC(=O)c1cccc(I)c1C(=O)NC(C)CS(=O)(=O)Nc1cccc(F)c1 (stereo not drawn) [1-109] | A (Mortality 100%) | E (Mortality less than 50%) | A (Mortality 100%)
Cc1cc(C(F)(C(F)(F)F)C(F)(F)F)ccc1NC(=O)c1cccc(I)c1C(=O)NC(C)CS(=O)(=O)Nc1ccc(F)cc1 (stereo not drawn) [1-110] | A (Mortality 100%) | E (Mortality less than 50%) | E (Mortality less than 50%)
COc1ccc(NS(=O)(=O)CC(C)NC(=O)c2c(I)cccc2C(=O)Nc2ccc(C(F)(C(F)(F)F)C(F)(F)F)cc2C)cc1 (stereo not drawn) [1-111] | A (Mortality 100%) | E (Mortality less than 50%) | E (Mortality less than 50%)
CSc1ccc(NS(=O)(=O)CC(C)NC(=O)c2c(I)cccc2C(=O)Nc2ccc(C(F)(C(F)(F)F)C(F)(F)F)cc2C)cc1 (stereo not drawn) [1-112] | A (Mortality 100%) | E (Mortality less than 50%) | E (Mortality less than 50%)
CONS(=O)(=O)CC(C)NC(=O)c1c(I)cccc1C(=O)Nc1ccc(C(F)(C(F)(F)F)C(F)(F)F)cc1C (stereo not drawn) [1-116] | A (Mortality 100%) | D (Mortality 79–50%) | A (Mortality 100%)
CCN(CC)S(=O)(=O)CC(C)NC(=O)c1c(I)cccc1C(=O)Nc1ccc(C(F)(C(F)(F)F)C(F)(F)F)cc1C (stereo not drawn) [1-144] | A (Mortality 100%) | A (Mortality 100%) | A (Mortality 100%)
Cc1cc(C(F)(C(F)(F)F)C(F)(F)F)ccc1NC(=O)c1cccc(I)c1C(=O)N[C@@H](C)CS(=O)(=O)NCc1ccccc1 [1-146] | A (Mortality 100%) | A (Mortality 100%) | A (Mortality 100%)
CSC[C@H](C)NS(=O)(=O)C[C@H](C)NC(=O)c1c(I)cccc1C(=O)Nc1ccc(C(F)(C(F)(F)F)C(F)(F)F)cc1C [1-147] | A (Mortality 100%) | A (Mortality 100%) | A (Mortality 100%)
Cc1cc(C(F)(C(F)(F)F)C(F)(F)F)ccc1NC(=O)c1cccc(I)c1C(=O)N[C@@H](C)CS(=O)(=O)N[C@@H](C)C[S+](C)[O-] (stereo partly drawn) [1-148] | A (Mortality 100%) | A (Mortality 100%) | A (Mortality 100%)
Cc1cc(C(F)(C(F)(F)F)C(F)(F)F)ccc1NC(=O)c1cccc(I)c1C(=O)N[C@@H](C)CS(=O)(=O)N[C@@H](C)CS(C)(=O)=O [1-149] | A (Mortality 100%) | A (Mortality 100%) | A (Mortality 100%)
Cc1cc(C(F)(C(F)(F)F)C(F)(F)F)ccc1NC(=O)c1cccc(I)c1C(=O)NC(C)(C)CS(N)(=O)=O [1-175, 3-iodo-N^1-{2-methyl-4-[1,2,2,2-tetrafluoro-1-(trifluoromethyl)ethyl]phenyl}-N^2-(2-sulfamoyl-1,1-dimethylethyl)phthalamide] | A (Mortality 100%) | A (Mortality 100%) | A (Mortality 100%)
CNS(=O)(=O)CC(C)(C)NC(=O)c1c(I)cccc1C(=O)Nc1ccc(C(F)(C(F)(F)F)C(F)(F)F)cc1C [1-176] | A (Mortality 100%) | A (Mortality 100%) | A (Mortality 100%)
Cc1cc(C(F)(C(F)(F)F)C(F)(F)F)ccc1NC(=O)c1cccc(I)c1C(=O)NC(C)(C)CS(=O)(=O)N(C)C [1-177] | A (Mortality 100%) | A (Mortality 100%) | A (Mortality 100%)
CCNS(=O)(=O)CC(C)(C)NC(=O)c1c(I)cccc1C(=O)Nc1ccc(C(F)(C(F)(F)F)C(F)(F)F)cc1C [1-178] | A (Mortality 100%) | A (Mortality 100%) | A (Mortality 100%)
CCN(CC)S(=O)(=O)CC(C)(C)NC(=O)c1c(I)cccc1C(=O)Nc1ccc(C(F)(C(F)(F)F)C(F)(F)F)cc1C [1-179] | A (Mortality 100%) | A (Mortality 100%) | A (Mortality 100%)
CCCCNS(=O)(=O)CC(C)(C)NC(=O)c1c(I)cccc1C(=O)Nc1ccc(C(F)(C(F)(F)F)C(F)(F)F)cc1C [1-180] | A (Mortality 100%) | C (Mortality 89–80%) | A (Mortality 100%)
Cc1cc(C(F)(C(F)(F)F)C(F)(F)F)ccc1NC(=O)c1cccc(I)c1C(=O)NC(C)(C)CS(=O)(=O)N1CCCC1 [1-181] | A (Mortality 100%) | A (Mortality 100%) | A (Mortality 100%)
Cc1cc(C(F)(C(F)(F)F)C(F)(F)F)ccc1NC(=O)c1cccc(I)c1C(=O)NC(C)(C)CS(=O)(=O)NCc1ccccc1 [1-184] | A (Mortality 100%) | A (Mortality 100%) | A (Mortality 100%)
CCNS(=O)(=O)CCCC(C)(C)NC(=O)c1c(I)cccc1C(=O)Nc1ccc(C(F)(C(F)(F)F)C(F)(F)F)cc1C [1-200] | A (Mortality 100%) | A (Mortality 100%) | A (Mortality 100%)
CCN(CC)S(=O)(=O)CCCC(C)(C)NC(=O)c1c(I)cccc1C(=O)Nc1ccc(C(F)(C(F)(F)F)C(F)(F)F)cc1C [1-201] | A (Mortality 100%) | A (Mortality 100%) | A (Mortality 100%)
